From patent publication US11761966B2, “Nourin gene-based RNA molecular network: novel early diagnostic and prognostic biomarkers for coronary artery disease, unstable angina, STEMI/NSTEMI and heart failure” (Nour Heart, Inc., priority 2018, dated 2023)
“Also recorded” adds a separate entry of the source. Where no end group is shown, it is not given here. The star is where a group is joined. For = O=C*

Legend:
miR-137 [1] = conditions: spontaneously hypertensive rats; cited from earlier work
rat grafted hearts = test: In vivo rat syngeneic abdominal heterotopic heart transplantation after 22-24 hours cold storage; conditions: after 22 and 24 hours of cold storage; control poor
Procedure: (§1) Furthermore, there was a higher weight gain in control hearts (UW) after 6 hours of cold storage compared to the CCrP-treated hearts (HH). […] The observed reduction of heart edema in the CCrP hearts (HH) is crucial for the restoration of contractile function during reperfusion at the end of 6-hour storage. […] Lewis rats were used for both the donors and recipients to avoid immunologic rejection. This approach allowed a focus at determining the in vivo cardioprotective benefits of CCrP treatment and to evaluate whether CCrP would restore cardiac contractility after prolonged cold storage and increase graft survival. Echocardiography (ECHO) analyses were conducted 2 hours after transplantation at day 0 and at day 3 before sacrifice.
Saline-treated control donor rats were evidently dilated with an increase in the sizes of both ventricles and atria. Additionally, the color was mildly cyanotic and the contractility was poor and irregular in rhythm. In most control grafted hearts, their heart beating score ranged from 1+ to 2+ at day 0 and day 3. Protection was shown in most of CCrP grafted hearts at day 3 where the myocardial color and the consistency of the degree of contractility were almost the same as day zero. […] Most the control grafted hearts, on the other hand, continued to show evidence of ischemia as well as loss of wall thickness and cardiac mass by day 0 and day 3 (FIG. 43).

miR-106b = test: qPCR of Nourin RNA network in ISO rat model of HF: serum miR-106b gene expression; type: in vivo; conditions: for reduction of miR-106b gene expression: serum day 14
Procedure: (§2) The standard quantitative real time PCR (qPCR) molecular assay described in Example 6 was used to determine the levels of Nourin RNA network in the ISO rat model of ischemia-induced HF. It was tested if the hypothesis that the levels of gene expression of Nourin molecular RNA Network (miR-137, miRNA-106b, mRNA FTHL-17, mRNA ANAPC11 and lncR-CTB89H12.4) will be elevated in HF rats, and that CCrP treatment will reduce their gene expression of Nourin molecular RNA Network in a dose-response manner.
(§3) After 14 days, gene expression of Nourin-dependent miR-137 and miR-106b and their signaling pathways mRNA-FTLH-17, mRNA-ANAPC11 and lncR-CTB89H12.4 were evaluated by qRT-PCR (Example 6).

hearts in cold storage = test: Heart cold storage for 6 hours in HH solution (UW+CCrP) vs UW
Procedure: as §1

[2] = Crossing of the blood-brain barrier
mRNA-ANAPC11 = test: qPCR of Nourin RNA network in ISO rat model of HF: serum mRNA-ANAPC11 gene expression; type: in vivo; conditions: for reduction of mRNA-ANAPC11 gene expression: serum day 14
Procedure: as §2, §3

lncR-CTB89H12.4 = test: qPCR of Nourin RNA network in ISO rat model of HF: serum lncR-CTB89H12.4 gene expression; type: in vivo; conditions: for increase of lncR-CTB89H12.4 gene expression: serum day 14
Procedure: as §2, §3

ISO rat model of HF = test: Standard isoproterenol (ISO) rat model of heart failure: CK-MB, ejection fraction, collagen, fibrosis, heart weight, physical activity; type: in vivo; parameters: heart weight: unit not given here; conditions: for Ejection Fraction (EF %) by ECHO: after 14 days
miR-137 [3] = test: qPCR of Nourin RNA network in ISO rat model of HF: serum miR-137 gene expression; type: in vivo; conditions: for reduction of miR-137 gene expression: serum day 14, vs ISO/saline
Procedure: as §2, §3

mRNA-FTHL-17 = test: qPCR of Nourin RNA network in ISO rat model of HF: serum mRNA-FTHL-17 gene expression; type: in vivo; conditions: for reduction of mRNA-FTHL-17 gene expression: serum day 14
Procedure: as §2, §3

rabbit skin = conditions: within the first 30 minutes, neutrophil infiltration; cited from earlier work
Swine Flu H1N1 virus = conditions: mice inoculated with Swine Flu H1N1 virus; cited from earlier work
Nourin = conditions: in-vitro; cited from earlier work
HF patients = conditions: small study, wide confidence intervals; cited from earlier work
[4] = system: patients with ST-Segment Elevation Myocardial Infarction; conditions: EMBRACE STEMI trial; cited from earlier work

Procedure for healthy rats: After 14 days, ECHO analysis for Ejection Fraction (EF %) was conducted, as well as heart weight (mg), histologic analysis for fibrosis and deposition of collagen. Mean±S.E.M and one-way ANOVA analysis were used.

## C[C@H](CS)C(=O)N1CCC[C@H]1C(=O)O [captopril]
miR-137 [1]
  miR-137 expression: inhibit miR-137 expression

## Cyclocreatine Phosphate [CCrP]
Rat grafted hearts
  general overall survival of the cardiac tissue of grafted hearts: very good to excellent
miR-106b; ISO/CCrP 0.4 g/kg
  reduction of miR-106b gene expression: 18%
miR-106b; ISO/CCrP 0.8 g/kg
  reduction of miR-106b gene expression: 44%
miR-106b; ISO/CCrP 1.2 g/kg
  reduction of miR-106b gene expression: 72%
miR-106b; healthy rats, CCrP 0.8 g/kg, saline-treated healthy rats 4.62
  miR-106b gene expression (Mean): 5.62
Healthy rats; control healthy rats, CCrP 0.8 g/kg/day, day 14
  myocardial fibrosis (Masson's trichrome): no fibrosis
Healthy rats; healthy rats, CCrP 0.8 g/kg daily for 14 days
  toxicity in heart, liver and renal function: no toxicity; also recorded: no observed toxic effect
Healthy rats; normal rats, CCrP 0.8 g/kg IP daily for 14 days
  levels of liver enzyme ALT, kidney Creatinine and Urea, CCrP vs saline: no significant difference; also recorded: no significance difference
Healthy rats; normal rats, CCrP 0.8 g/kg daily for 14 days
  heart weight: 0.6
Healthy rats; normal rats, CCrP 0.8 g/kg daily for 14 days, control saline 0.1
  collagen %: 0.1%
Healthy rats; normal rats, CCrP 0.8 g/kg daily for 14 days, control saline 64
  Ejection Fraction (EF %) by ECHO: 61%
Hearts in cold storage; 6 hours cold storage, HH solution (UW+CCrP), control (UW) 0.31 gm
  heart weight after cold storage: 0.25 gm
Hearts in cold storage; CCrP treated-group (HH) vs saline control
  recovery of contractile function: significantly better
[2]
  crossing of the blood-brain barrier: crosses blood brain barrier
mRNA-ANAPC11; ISO/CCrP 0.4 g/kg
  reduction of mRNA-ANAPC11 gene expression: 18%
mRNA-ANAPC11; ISO/CCrP 0.8 g/kg
  reduction of mRNA-ANAPC11 gene expression: 31%
mRNA-ANAPC11; ISO/CCrP 1.2 g/kg
  reduction of mRNA-ANAPC11 gene expression: 70%
mRNA-ANAPC11; healthy rats, CCrP 0.8 g/kg, saline-treated healthy rats 1.0
  mRNA-ANAPC11 gene expression (Mean): 0.9
lncR-CTB89H12.4; ISO/CCrP 0.4 g/kg
  increase of lncR-CTB89H12.4 gene expression: 1.33 fold
lncR-CTB89H12.4; ISO/CCrP 0.8 g/kg
  increase of lncR-CTB89H12.4 gene expression: 7.66 fold
lncR-CTB89H12.4; ISO/CCrP 1.2 g/kg
  increase of lncR-CTB89H12.4 gene expression: 14.33 fold
lncR-CTB89H12.4; healthy rats, CCrP 0.8 g/kg, saline-treated healthy rats 1.1
  lncR-CTB89H12.4 gene expression (Mean): 1.3
ISO rat model of HF; ISO/CCrP 0.4 g/kg
  Ejection Fraction (EF %) by ECHO: 54%
ISO rat model of HF; ISO/CCrP 0.4 g/kg, day 14
  collagen %: 3.3%
ISO rat model of HF; ISO/CCrP 0.4 g/kg, day 14, ISO 0.8 mg, normal saline 0.6 mg
  heart weight: 0.7
ISO rat model of HF; ISO/CCrP 0.8 g/kg, 24 hours after last ISO injection, ISO 206.20±6.25, control saline 82.60±5.2
  Serum CK-MB: 70.67±5.79 U/L
ISO rat model of HF; ISO/CCrP 0.8 g/kg, day 14
  heart weight: 0.6
ISO rat model of HF; ISO/CCrP 0.8 g/kg/day, ISO 36, control saline 64
  Ejection Fraction (EF %) by ECHO: 64%
ISO rat model of HF; ISO/CCrP 0.8 g/kg/day, day 14
  myocardial fibrosis (Masson's trichrome): very low fibrosis; also recorded: delicate fibrous tissue between the myocardial bundles, almost similar to healthy normal rats
ISO rat model of HF; ISO/CCrP 0.8 g/kg/day, day 14, ISO/saline 4.1
  collagen %: 0.7%
ISO rat model of HF; ISO/CCrP 1.2 g/kg
  Ejection Fraction (EF %) by ECHO: 59%
ISO rat model of HF; ISO/CCrP 1.2 g/kg, day 14
  collagen %: 0.2%
  heart weight: 0.7
ISO rat model of HF; ISO/CCrP group (n=5), day 14 before sacrifice
  physical activity: high physical activity
miR-137 [3]; ISO/CCrP 0.4 g/kg
  reduction of miR-137 gene expression: 33%
miR-137 [3]; ISO/CCrP 0.8 g/kg
  reduction of miR-137 gene expression: 75%
miR-137 [3]; ISO/CCrP 1.2 g/kg
  reduction of miR-137 gene expression: 68%
miR-137 [3]; healthy rats, CCrP 0.8 g/kg, saline-treated healthy rats 1.15
  miR-137 gene expression (Mean): 1.60
mRNA-FTHL-17; ISO/CCrP 0.4 g/kg
  reduction of mRNA-FTHL-17 gene expression: 16%
mRNA-FTHL-17; ISO/CCrP 0.8 g/kg
  reduction of mRNA-FTHL-17 gene expression: 30%
mRNA-FTHL-17; ISO/CCrP 1.2 g/kg
  reduction of mRNA-FTHL-17 gene expression: 75%
mRNA-FTHL-17; healthy rats, CCrP 0.8 g/kg, saline-treated healthy rats 1.01
  mRNA-FTHL-17 gene expression (Mean): 0.67

## Nourin: 3 KDa N-formyl peptide released by ischemic heart, inflammatory mediator (SEQ ID NO:15) (For-MIINHNLAAINSHRSPGADGNGGEAMPGGGR; listed as Homo sapiens)
Rabbit skin
  inflammatory response in skin: acute inflammatory response

## C/C=C/C[C@@H](C)[C@@H](O)[C@H]1C(=O)N[C@@H](CC)C(=O)N(C)CC(=O)N(C)[C@@H](CC(C)C)C(=O)N[C@@H](C(C)C)C(=O)N(C)[C@@H](CC(C)C)C(=O)N[C@@H](C)C(=O)N[C@H](C)C(=O)N(C)[C@@H](CC(C)C)C(=O)N(C)[C@@H](CC(C)C)C(=O)N(C)[C@H](C(C)C)C(=O)N1C [Cyclosporin H]
Swine Flu H1N1 virus
  lung inflammation: significantly reduced lung inflammation
Nourin
  Nourin activity: inhibited Nourin activity

## elamipretide
HF patients
  left ventricular volumes: reduce left ventricular volumes
[4]
  primary or secondary outcomes: did not improve the primary or secondary outcomes
